One data set deals with APEC serotype O78. The method, then:
The efficacy of GIs was assessed using commercial broiler chickens (n = 6/group). […] GI compounds (ChemBridge, San Diego, CA) dissolved in dimethyl sulfoxide (DMSO) were administered orally using a syringe, twice a day, from day 4 (1 day before APEC infection) to day 8 (3 days postinfection [dpi]). The dose of each GI is described in Table S1. […] Chickens that were infected and vehicle-treated (positive control [PC]) and noninfected and nontreated (negative control [NC]) were included as controls. On day 5, chickens were infected subcutaneously (s.c.) with rifampin-resistant (Rif^r) APEC serotype O78 ([18]) (1 × 10^7 CFU/chicken). […] To prepare the APEC inoculum for infection, Rif^r APEC O78 (50 μg/ml rifampin) was grown to logarithmic phase in LB medium, washed twice with phosphate-buffered saline (PBS), and adjusted to an optical density at 600 nm (OD600) of 0.1 (5 × 10^7 CFU/ml). The clinical signs and mortality were recorded until 7 dpi. Chickens that died during this period were necropsied on the same day, lesions in internal organs (liver, heart, lung, and air sacs) were scored as described previously ([63], [71]), and the APEC loads were quantified in internal organs (liver, heart, lung, and kidney) by plating the tissue homogenates on MacConkey agar plates containing 50 μg/ml rifampin ([18]). At 7 dpi (day 12), all live birds were euthanized, lesions were scored, and the APEC loads in internal organs were quantified as described above. The body weight of chickens was measured before GI treatment (day 3) and at the day of necropsy (day 12).

The next data set concerns APEC O78. Also on record: method as in PMID 30333507. The conditions noted are these: cited from earlier work.
Another data set concerns APEC. Nature of the data set: microbe, parasite or virus in culture. The conditions noted are these: Escherichia coli. In kind it is cell-based, Escherichia coli.

SMILES strings stand for the structures. ≈ marks a conversion by molar mass, not a printed value.

Consider `CC(=O)OC(C(Br)C(=O)c1ccc([N+](=O)[O-])cc1)C(Cl)(Cl)Cl` (centres unmarked) [GI-10], for which, in the data set on APEC serotype O78 (efficacy trial, oral), the “Mean APEC load, Heart” value was 3.9 Log CFU/g tissues; the “Mean APEC load, Kidney” value came out at 3.1 Log CFU/g tissues; the “Mean APEC load, Liver” value was 3.9 Log CFU/g tissues; the “Mean APEC load, Lung” value was determined as 3.7 Log CFU/g tissues. In the data set with APEC serotype O78 (efficacy trial, oral), the “Mean lesion score in Air sacs” value is recorded as 1.7, the “Mean lesion score in Heart” value was 2.2, the “Mean lesion score in Liver” value is on record as 1.3 and the “Mean lesion score in Lung” value worked out at 1. The Survival of chickens entry in the data set with APEC serotype O78 (efficacy trial, oral, P ≤ 0.1, log rank test) was “prolonged the survival”. In the data set on APEC serotype O78 (efficacy trial, oral, PC 6.2), this compound returned a Cumulative lesion score of 6.2. Also, the “Mortality reduction compared to PC group” value in the data set with APEC serotype O78 (efficacy trial, oral, PC mortality 58.3%) worked out at 41.7%. Moreover, in the data set on APEC serotype O78 (efficacy trial, oral, vs PC), the “% reduction in severity, Air sacs lesions” value is recorded as −17.6%; the “% reduction in severity, Heart lesions” value is −4%; the “% reduction in severity, Liver lesions” value came to 20%; the “% reduction in severity, Lung lesions” value was determined as 0%. Besides, in the data set on APEC serotype O78 (efficacy trial, oral, vs PC), the “log reduction in APEC load, Heart” value came to 1.0 Log CFU/g tissues; the “log reduction in APEC load, Kidney” value came to 2.4 Log CFU/g tissues; the “log reduction in APEC load, Liver” value is recorded as 0.8 Log CFU/g tissues; the “log reduction in APEC load, Lung” value is on record as 1.4 Log CFU/g tissues. Moreover, the “BWG (body weight gain)” value in the data set on APEC serotype O78 (in vivo) amounted to 220.8±38.9. Also, the MIC in the data set with APEC O78 is 25 µM (≈ 10.8 µg/mL). Further, in the data set on APEC, the MBC is 50 µM (≈ 21.7 µg/mL) and the MIC was found to be 25 µM (≈ 10.8 µg/mL).
